# Measured values taken from the supplement of paper PMC12490022.
# ± gives the uncertainty stated by the source.
# System: ozone
# Assay: apparent second-order rate constant for reaction with ozone (kapp,O3) (M-1 s-1); higher = faster oxidation by ozone
# Conditions: pH 7; temperature: 22 C; OH radical scavenger: tBuOH 80 mM; phosphate 4 mM
# Experimental: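 Apparent second-order rate constants for reaction with ozone at pH 7 were determined by multicompound competition kinetics. Mixtures of targets and competitors (10 ug/L each) were ozonated in 4 mM phosphate buffer, pH 7, with 80 mM tBuOH as OH-radical scavenger, at 22 ± 1 °C. Peak-area abatement was measured by HPLC-HRMS/MS and k was derived from ln-ln slopes against competitors with known k (R2 > 0.9, >= 10 points, slope 0.1-10). Experiments were run in triplicate on 3 days; the value is the mean over valid competitors ± SD.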
row,apparent second-order rate constant,SMILES
1,335000 ± 28000,COC(=O)C(c1ccccc1Cl)N1CCc2sccc2C1 (centres undefined) [Clopidogrel]
2,436 ± 22,CC12CCC(=O)C=C1CCC1C2C(=O)CC2(C)C1CCC2(O)C(=O)CO (centres undefined) [Cortisone]
3,2.9 ± 0.3,CN1C(=O)CCC1c1cccnc1 (centres undefined) [Cotinine]
4,55 ± 2.9,CCOC(=O)c1c(COCCN)nc(C)c(C(=O)OC)c1-c1ccccc1Cl [Dehydroamlodipine]
5,2.25e+06 ± 220000,Oc1ccc(C(c2ccc(O)cc2)c2ccccn2)cc1 [Desacetylbisacodyl]
6,668000 ± 57000,COc1ccc([C@@H]2Sc3ccccc3N(CCN(C)C)C(=O)[C@@H]2O)cc1 [Desacetyldiltiazem]
7,134 ± 7.4,NCC(O)COc1ccc(CC(N)=O)cc1 (centres undefined) [Desisopropylatenolol]
8,1960 ± 160,Clc1ccc2c(c1)CCc1cccnc1C2=C1CCNCC1 [Desloratadine]
9,1.74 ± 0.19,CC(=O)Nc1c(I)c(C(=O)NCC(O)CO)c(I)c(C(=O)N(C)CC(O)CO)c1I (centres undefined) [Desmethoxyiopromide]
10,239000 ± 8000,CCC1OC(=O)C(C)C(O)C(C)C(OC2OC(C)CC(N(C)C)C2O)C(C)(O)CC(C)CN(C)C(C)C(O)C1(C)O (centres undefined) [Desosaminylazithromycin]
11,230 ± 30,CC(=O)Nc1c(I)c(NC(C)=O)c(I)c(C(=O)O)c1I [Diatrizoate]
12,815000 ± 110000,O=C(O)c1ccccc1Nc1c(Cl)cccc1Cl [Diclofenac carboxylic acid]
13,830000 ± 71000,O=C(O)Cc1ccccc1Nc1c(Cl)cccc1Cl [Diclofenac]
14,4.5 ± 0.5,O=c1nc[nH]c2c1ncn2C1CCC(CO)O1 (centres undefined) [Didanosine]
15,735000 ± 67000,COc1ccc(C2Sc3ccccc3N(CCN(C)C)C(=O)C2OC(C)=O)cc1 (centres undefined) [Diltiazem]
16,< 0.401,CC(=O)N(C)N(C(=O)C(=O)N(C)C)c1ccccc1 [Dioxypyramidon (AMDOPH)]
17,3.6 ± 0.4,C[N+](C)(CCOC(c1ccccc1)c1ccccc1)C1OC(C(=O)[O-])C(O)C(O)C1O (centres undefined) [Diphenhydramine-N-glucuronide]
18,5500 ± 140,CN(C)CCOC(c1ccccc1)c1ccccc1 [Diphenhydramine]
19,79000 ± 70000,Nc1nc(=O)n(C2CSC(CO)O2)cc1F (centres undefined) [Emtricitabine]
20,1.57e+06 ± 140000,CCCCc1ncc(C=C(Cc2cccs2)C(=O)O)n1Cc1ccc(C(=O)O)cc1 [Eprosartan]
21,1.8e+07 ± 4e+06,O=C1CC(c2ccc(O)c(O)c2)Oc2cc(O)cc(O)c21 (centres undefined) [Eriodictyol]
22,1.27 ± 0.17,CC(C)OC(=O)C(C)(C)Oc1ccc(C(=O)c2ccc(Cl)cc2)cc1 [Fenofibrate]
23,2.8 ± 0.3,CC(C)(Oc1ccc(C(=O)c2ccc(Cl)cc2)cc1)C(=O)O [Fenofibric acid]

row,apparent second-order rate constant,SMILES
1,11.9 ± 1.3,CC(C)(C(=O)O)c1ccc(C(O)CCC[N+]2([O-])CCC(C(O)(c3ccccc3)c3ccccc3)CC2)cc1 (centres undefined) [Fexofenadine-N-oxide]
2,2950 ± 260,CC(C)(C(=O)O)c1ccc(C(O)CCCN2CCC(C(O)(c3ccccc3)c3ccccc3)CC2)cc1 (centres undefined) [Fexofenadine]
3,2.7 ± 0.3,CN(C=O)CCC(Oc1ccc(C(F)(F)F)cc1)c1ccccc1 (centres undefined) [Fluoxetine formamide]
4,1720 ± 50,CNCCC(Oc1ccc(C(F)(F)F)cc1)c1ccccc1 (centres undefined) [Fluoxetine]
5,390 ± 30,Nc1ccn(C2OC(CO)C(O)C2(F)F)c(=O)n1 (centres undefined) [Gemcitabine]
6,3.3e+07 ± 7e+06,COc1ccc(C2CC(=O)c3c(O)cc(O)cc3O2)cc1O (centres undefined) [Hesperitin]
7,3000 ± 300,NS(=O)(=O)c1cc2c(cc1Cl)NCNS2(=O)=O [Hydrochlorothiazide]
8,420 ± 25,CC12CCC(=O)C=C1CCC1C2C(O)CC2(C)C1CCC2(O)C(=O)CO (centres undefined) [Hydrocortisone]
9,850 ± 70,CC(C)NC(=O)NS(=O)(=O)c1cnccc1Nc1cccc(CO)c1 [Hydroxytorasemide]
10,7.6e+07 ± 1.7e+07,C1=Cc2ccccc2Nc2ccccc21 [Iminostilbene]
11,5.15e+06 ± 670000,COc1ccc2c(c1)c(CC(=O)O)c(C)n2C(=O)c1ccc(Cl)cc1 [Indomethacin]
12,2.14 ± 0.23,COCC(=O)Nc1c(I)c(C(=O)NCC(O)CO)c(I)c(C(=O)N(C)CC(O)CO)c1I (centres undefined) [Iopromide]
13,0.529 ± 0.016,CC(C(=O)O)c1cccc(C(=O)c2ccccc2)c1 (centres undefined) [Ketoprofen]
14,61000 ± 14000,Nc1ccn([C@@H]2CS[C@H](CO)O2)c(=O)n1 [Lamivudine]
15,371 ± 20,Nc1nc(N)[n+]([C@@H]2O[C@H](C(=O)O)[C@@H](O)[C@H](O)[C@H]2O)nc1-c1cccc(Cl)c1Cl [Lamotrigine-N2-glucuronide]
16,17.1 ± 1.2,Nc1nnc(-c2cccc(Cl)c2Cl)c(N)n1 [Lamotrigine]
17,0.66 ± 0.08,CCC(C(=O)O)N1CCCC1=O (centres undefined) [Levetiracetam acid]
18,10.9 ± 1.2,NC(=O)N1c2ccccc2CC(O)c2ccccc21 (centres undefined) [Licarbazepine]
19,17000 ± 1700,CCNCC(=O)Nc1c(C)cccc1C [Lidocaine-N-desethyl]
20,10.9 ± 1.2,CC[N+]([O-])(CC)CC(=O)Nc1c(C)cccc1C [Lidocaine-N-oxide]
21,185000 ± 17000,CCN(CC)CC(=O)Nc1c(C)cccc1C [Lidocaine]
22,198000 ± 16000,CCCCc1nc(Cl)c(CO)n1Cc1ccc(-c2ccccc2-c2nn[nH]n2)cc1 [Losartan]
23,1.12e+06 ± 80000,Cc1cccc(Nc2ccccc2C(=O)O)c1C [Mefenamic acid]

row,SMILES,apparent second-order rate constant
1,COC(=O)C1C(OC(=O)c2ccccc2)CC2CCC1[N+]2(C)[O-] (centres undefined) [Cocaine-N-oxide],< 0.401
2,COC(=O)C1C(OC(=O)c2ccccc2)CC2CCC1N2C (centres undefined) [Cocaine],3020 ± 260
3,COc1ccc2c3c1OC1C(O)C=CC4C(C2)N(C)CCC341 (centres undefined) [Codeine],1.03e+06 ± 88000
4,C#CCN(C)C(C)Cc1ccccc1 (centres undefined) [Deprenyl],930000 ± 81000
5,COc1ccc2c(c1)C13CCCCC1C(C2)N(C)CC3 (centres undefined) [Dextromethorphan],5580 ± 96
6,CN1CCC23CCCCC2C1Cc1ccc(O)cc13 (centres undefined) [Dextrorphan],1.87e+06 ± 170000
7,CC(NC(C)(C)C)C(O)c1cccc(Cl)c1 (centres undefined) [Dihydrobupropion],162 ± 8.9
8,CNC(C)C(O)c1ccccc1 (centres undefined) [Ephedrine],1720 ± 150
9,O=C1CC2(CCCCC2)CN1 [Gabapentin-lactam],1.51 ± 0.16
10,NCC1(CC(=O)O)CCCCC1 [Gabapentin],11.4 ± 1.2
11,CC(NC(C)(C)CO)C(=O)c1cccc(Cl)c1 (centres undefined) [Hydroxybupropion],3630 ± 310
12,CNC1(c2ccccc2Cl)CCCCC1=O (centres undefined) [Ketamine],10400 ± 1000
13,CCC(C(N)=O)N1CCCC1=O (centres undefined) [Levetiracetam],0.81 ± 0.09
